Results as given in patent publication US11780845B2 (Relay Therapeutics, Inc., priority 2019, dated 2023).
pIC50: −log10 of the molar value.

Target: FGFR2 (Homo sapiens (Human), UniProt P21802)
Assay: FGFR2 Biochemical Caliper Assay
Protocol: Compounds of the present invention were also tested in a FGFR2 Biochemical Caliper Assay. Compounds were prepared in 10 mM DMSO solution and serially diluted into 11 concentrations by 3-fold dilution. […] 5 uL of ATP solution (100 uM) was added to start the reaction and the plate was incubated for 90 minutes, then 70 uL of stopping buffer (0.5M EDTA) was added to terminate the reaction. Each well was analyzed using EZ reader.

Chain of FGFR2 (P21802 22-821): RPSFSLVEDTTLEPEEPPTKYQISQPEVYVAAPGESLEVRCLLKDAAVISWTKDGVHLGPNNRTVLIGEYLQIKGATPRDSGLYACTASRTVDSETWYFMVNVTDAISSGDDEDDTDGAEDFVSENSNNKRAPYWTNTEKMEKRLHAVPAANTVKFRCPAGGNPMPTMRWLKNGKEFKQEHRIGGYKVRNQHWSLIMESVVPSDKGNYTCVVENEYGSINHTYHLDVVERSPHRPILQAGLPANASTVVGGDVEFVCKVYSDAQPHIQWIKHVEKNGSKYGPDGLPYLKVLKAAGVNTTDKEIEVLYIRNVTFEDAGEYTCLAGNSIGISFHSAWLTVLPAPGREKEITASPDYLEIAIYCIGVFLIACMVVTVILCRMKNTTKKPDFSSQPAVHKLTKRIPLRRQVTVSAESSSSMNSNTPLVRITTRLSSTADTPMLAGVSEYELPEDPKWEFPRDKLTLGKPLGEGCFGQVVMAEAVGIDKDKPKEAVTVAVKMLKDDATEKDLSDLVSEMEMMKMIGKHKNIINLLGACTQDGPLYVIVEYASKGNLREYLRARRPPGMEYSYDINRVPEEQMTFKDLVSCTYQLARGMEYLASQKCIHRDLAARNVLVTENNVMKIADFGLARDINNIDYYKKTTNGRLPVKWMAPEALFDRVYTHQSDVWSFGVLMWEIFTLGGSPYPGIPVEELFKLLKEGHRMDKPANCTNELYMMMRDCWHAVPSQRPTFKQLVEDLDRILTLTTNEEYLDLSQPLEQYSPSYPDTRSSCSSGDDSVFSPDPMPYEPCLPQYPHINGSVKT

SMILES	pIC50
C=C(C)C(=O)Nc1ccc(-c2c(-c3ccc(C(=O)NCC4(C)CC4)cc3)c3c(N)ncnc3n2C)cc1 [Example 349]	> 7.00
C=C(C)C(=O)Nc1ccc(-c2c(-c3ccc(S(=N)(=O)NC4CCCC4)cc3)c3c(N)ncnc3n2C)cc1 (stereo not drawn) [Example 350]	4.00 to 6.00
C=C(C)C(=O)Nc1ccc(-c2c(-c3ccc(C(=O)N4CCC[C@@H]4C#N)cc3)c3c(N)ncnc3n2C)cc1 [Example 356]	6.60 to 7.00
C=C(C)C(=O)Nc1ccc(-c2c(-c3ccc(C(=O)NC4CCNC4)cc3)c3c(N)ncnc3n2C)cc1 (stereo not drawn) [Example 358]	> 7.00
C=C(C)C(=O)Nc1ccc(-c2c(-c3ccc(C(=O)N4CCC[C@H]4C#N)cc3)c3c(N)ncnc3n2C)cc1 [Example 359]	> 7.00
C=C(C)C(=O)Nc1ccc(-c2c(-c3ccc(C(=O)NCC4(C#N)CC4)cc3)c3c(N)ncnc3n2C)cc1 [Example 360]	> 7.00
C=C(C)C(=O)Nc1ccc(-c2c(-c3ccc(C(=O)NCCF)cc3)c3c(N)ncnc3n2C)cc1 [Example 363]	> 7.00
C=C(C)C(=O)Nc1ccc(-c2c(-c3ccc(C(=O)NC4CC(F)C4)cc3)c3c(N)ncnc3n2C)cc1 (stereo not drawn) [Example 364]	> 7.00
C=C(C)C(=O)Nc1ccc(-c2c(-c3ccc(C(=O)NCC4COC4)cc3)c3c(N)ncnc3n2C)cc1 [Example 366]	6.60 to 7.00
C=C(C)C(=O)Nc1ccc(-c2c(-c3ccc(C(=O)NCCC4COC4)cc3)c3c(N)ncnc3n2C)cc1 [Example 367]	6.00 to 6.60
C=C(C)C(=O)Nc1ccc(-c2c(-c3ccc(C(=O)NC4CCN(C)C4=O)cc3)c3c(N)ncnc3n2C)cc1 (stereo not drawn) [Example 389]	6.60 to 7.00
C=C(C)C(=O)Nc1ccc(-c2c(-c3ccc(C(=O)N(C)C4CCN(C)C4=O)cc3)c3c(N)ncnc3n2C)cc1 (stereo not drawn) [Example 390]	4.00 to 6.00
C=C(C)C(=O)Nc1ccc(-c2c(-c3ccc(C(=O)NCC4COCCN4C)cc3)c3c(N)ncnc3n2C)cc1 (stereo not drawn) [Example 392]	4.00 to 6.00
C=C(C)C(=O)Nc1ccc(-c2c(C3=CCC(C(=O)NCC(C)(C)OC)CC3)c3c(N)ncnc3n2C)cc1 (stereo not drawn) [Example 394]	6.00 to 6.60
C=C(C)C(=O)Nc1ccc(-c2c(-c3ccc(C(=O)NC4CCOC4)c(F)c3)c3c(N)ncnc3n2C)cc1 (stereo not drawn) [Example 396]	6.60 to 7.00
C=C(C)C(=O)Nc1ccc(-c2c(-c3ccc(C(=O)NC4CCOC4)c(OC)c3)c3c(N)ncnc3n2C2COC2)cc1 (stereo not drawn) [Example 400]	6.60 to 7.00
C=C(C)C(=O)Nc1ccc(-c2c(C3=CCC(C(=O)NCC4CCC4)CC3)c3c(N)ncnc3n2C)cc1 (stereo not drawn) [Example 402]	6.60 to 7.00
C=C(C)C(=O)Nc1ccc(-c2c(-c3ccc(Oc4cccc(C)n4)cc3)c3c(N)ncnc3n2C)cc1COC [Example 403]	6.60 to 7.00
C=C(C)C(=O)Nc1ccc(-c2c(C3=CCC(C(=O)N4CCCC[C@@H]4C)CC3)c3c(N)ncnc3n2C)cc1 (stereo partly drawn) [Example 404]	6.60 to 7.00
Cc1cccc(Oc2ccc(-c3c(-c4cnc(C#N)nc4)n(C)c4ncnc(N)c34)cc2)n1 [Example 405]	> 7.00
C=C(C)C(=O)Nc1ccc(-c2c(-c3ccc(C(=O)N4CCCC4)cc3)c3c(N)ncnc3n2C)cc1C [Example 407]	4.00 to 6.00
C=C(C)C(=O)Nc1ccc(-c2c(-c3ccc(C(=O)N(C)C(CF)CF)cc3)c3c(N)ncnc3n2C)cc1 [Example 412]	> 7.00

SMILES	pIC50
C=C(C)C(=O)N(C)c1ccc(-c2c(-c3ccc(Oc4cccc(C)n4)cc3)c3c(N)ncnc3n2C)cc1 [Example 414]	6.60 to 7.00
C=C(C)C(=O)Nc1ccc(-c2c(C3=CC[C@H](C(=O)N4CC5CCC(C5)C4)CC3)c3c(N)ncnc3n2C)cc1 [Example 420]	4.00 to 6.00
C=C(C)C(=O)N(C)c1ccc(-c2c(-c3ccc(C(=O)NCC(C)(C)OC)cc3)c3c(N)ncnc3n2C)cc1 [Example 421]	4.00 to 6.00
C=C(C)C(=O)Nc1ccc(-c2c(-c3ccc(C(=O)N4CCCC4)nc3)c3c(N)ncnc3n2C)cc1 [Example 422]	4.00 to 6.00
C=C(C)C(=O)Nc1ccc(-c2c(-c3ccc(C(=O)N(CCN)CC(F)(F)F)cc3)c3c(N)ncnc3n2C)cc1 [Example 430]	6.00 to 6.60
C=C(C)C(=O)Nc1ccc(-c2c(-c3ccc(C(=O)NCC(C)(C)OC)nc3)c3c(N)ncnc3n2C)cc1 [Example 438]	4.00 to 6.00
C=C(C)C(=O)Nc1ccc(-c2c(-c3cnn(Cc4cccc(C)n4)c3)c3c(N)ncnc3n2C)cc1 [Example 439]	4.00 to 6.00
C=C(C)C(=O)Nc1ccc(-c2c(-c3ccc(C(=O)N(C)CC4(OC)CC4)cc3)c3c(N)ncnc3n2C)cc1 [Example 440]	4.00 to 6.00
C=C(C)C(=O)Nc1ccc(-c2c(-c3ccc(Oc4ncc(F)cn4)c(N(C)C)c3)c3c(N)ncnc3n2C)cc1 [Example 443]	4.00 to 6.00
C=C(C)C(=O)Nc1ccc(-c2c(-c3ccc(Oc4ncc(OC)cn4)cc3)c3c(N)ncnc3n2C)cc1 [Example 450]	6.00 to 6.60
C=C(C)C(=O)Nc1ccc(-c2c(-c3ccc(Oc4ncc(F)cn4)nc3)c3c(N)ncnc3n2C)cc1 [Example 453]	4.00 to 6.00
C=C(C)C(=O)Nc1ccc(-c2c(-c3ccc(C(=O)N(CCN(C)C)CC(F)(F)F)cc3)c3c(N)ncnc3n2C)cc1 [Example 454]	6.00 to 6.60
C=C(C)C(=O)Nc1ccc(-c2c(-c3ccc(Oc4ncc(N(C)C)cn4)c(F)c3)c3c(N)ncnc3n2C)cc1 [Example 455]	6.00 to 6.60
C=C(C)C(=O)Nc1ccc(-c2c(-c3ccc(Oc4ncc(N(C)C)cn4)cc3)c3c(N)ncnc3n2C)cc1 [Example 456]	6.00 to 6.60
C=C(C)C(=O)Nc1ccc(-c2c(-c3ccc(C(=O)NCC4CCC4)c(C(C)=O)c3)c3c(N)ncnc3n2C)cc1 [Example 457]	6.60 to 7.00
C=C(C)C(=O)Nc1ccc(-c2c(-c3ccc(C(=O)N(C)CC4(F)COC4)cc3)c3c(N)ncnc3n2C)c(F)c1 [Example 467]	6.60 to 7.00
C=C(C)C(=O)Nc1ccc(-c2c(-c3ccc(C(=O)N(C)CC4CCOC4)cc3)c3c(N)ncnc3n2C)cc1 (stereo not drawn) [Example 469]	6.00 to 6.60
C=C(C)C(=O)Nc1ccc(-c2c(-c3cc(F)c(C(=O)NCC(C)(C)OC)c(F)c3)c3c(N)ncnc3n2C)cc1 [Example 470]	6.60 to 7.00
C=C(C)C(=O)Nc1ccc(-c2c(-c3ccc(C(=O)N4CCCC4)cc3)c3c(N)ncnc3n2C)c(CC)c1 [Example 477]	6.60 to 7.00
C=C(C)C(=O)Nc1ccc(-c2c(-c3ccc(C(=O)N4CCCC4)cc3)c3c(N)ncnc3n2C)c(C2CC2)c1 [Example 478]	6.60 to 7.00
C=C(C)C(=O)Nc1ccc(-c2c(-c3cnc(Oc4cccc(C)n4)cn3)c3c(N)ncnc3n2C)cc1 [Example 480]	6.00 to 6.60
C=C(C)C(=O)Nc1ccc(-c2c(-c3ccc(C(=O)N(C)Cc4ncno4)cc3)c3c(N)ncnc3n2C)cc1 [Example 481]	4.00 to 6.00

SMILES	pIC50
C=C(C)C(=O)Nc1ccc(-c2c(-c3cnc(Oc4cccc(C)n4)nc3)c3c(N)ncnc3n2C)cc1 [Example 483]	4.00 to 6.00
C=C(C)C(=O)Nc1ccc(-c2c(-c3ccc(C(=O)N4CCCC4)cc3)c3c(N)ncnc3n2C)c(CN2CCOCC2)c1 [Example 486]	4.00 to 6.00
C=C(C)C(=O)Nc1ccc(-c2c(-c3ccn(Cc4cccc(C)n4)c(=O)c3)c3c(N)ncnc3n2C)cc1 [Example 488]	4.00 to 6.00
C=C(C)C(=O)Nc1ccc(-c2c(-c3ccc(C(=O)N(C)CC4COC4)cc3)c3c(N)ncnc3n2C)c(F)c1 [Example 489]	6.00 to 6.60
C=C(C)C(=O)Nc1ccc(-c2c(-c3ccc(Oc4nccc(C)n4)c(OCC)c3)c3c(N)ncnc3n2C)cc1 [Example 491]	4.00 to 6.00
Cn1c(-c2ccc(C#N)nc2)c(-c2ccc(C(=O)N3CCCC3)cc2)c2c(N)ncnc21 [Example 493]	4.00 to 6.00
C=C(C)C(=O)Nc1ccc(-c2c(-c3ccc(Oc4nccc(C)n4)c(COC)c3)c3c(N)ncnc3n2C)cc1 [Example 501]	4.00 to 6.00
C=C(C)C(=O)Nc1ccc(-c2c(-c3ccc(Oc4nccc(C)n4)c(N(C)C)c3)c3c(N)ncnc3n2C)cc1 [Example 504]	4.00 to 6.00
C=C(C)C(=O)Nc1ccc(-c2c(-c3ccc(C(=O)N4CCCC4)cc3)c3c(N)ncnc3n2C)c(CC)c1 [Example 516]	> 7.00
C=C(C)C(=O)Nc1ccc(-c2c(-c3ccc(C(=O)N4CCCC4)cc3)c3c(N)ncnc3n2C)c(CC)c1 [Example 517]	6.00 to 6.60
C=C(C)C(=O)Nc1ccc(-c2c(-c3ccc(C(=O)N4CCCC4)cc3)c3c(N)ncnc3n2C)c(C2CC2)c1 [Example 518]	> 7.00
C=C(C)C(=O)Nc1ccc(-c2c(-c3ccc(Oc4nccc(C)n4)c(F)c3)c3c(N)ncnc3n2C)c(C(=O)N(C)C)c1 [Example 519]	4.00 to 6.00
Cn1c(-c2ccc(NC(=O)C3=CCCC3)cc2)c(-c2ccc(C(=O)N3CCCC3)cc2)c2c(N)ncnc21 [Example 523]	4.00 to 6.00
Cn1c(-c2ccc(NC(=O)C=C3CCC3)cc2)c(-c2ccc(C(=O)N3CCCC3)cc2)c2c(N)ncnc21 [Example 525]	4.00 to 6.00
C=C(C)C(=O)Nc1ccc(-c2c(-c3ccc(Oc4nccc(C)n4)c(F)c3)c3c(N)ncnc3n2C2CCOC2)cc1 (stereo not drawn) [Example 536]	> 7.00
Cn1c(-c2ccc(N3CCC=CC3=O)cc2)c(-c2ccc(C(=O)N3CCCC3)cc2)c2c(N)ncnc21 [Example 540]	4.00 to 6.00
Cn1c(-c2ccc(NC(=O)CC3=CCCC3)cc2)c(-c2ccc(C(=O)N3CCCC3)cc2)c2c(N)ncnc21 [Example 542]	4.00 to 6.00
Cn1c(-c2ccc(N3CCC=CS3(=O)=O)cc2)c(-c2ccc(C(=O)N3CCCC3)cc2)c2c(N)ncnc21 [Example 544]	4.00 to 6.00
Cn1c(-c2ccc(NC(=O)C=C3CCCC3)cc2)c(-c2ccc(C(=O)N3CCCC3)cc2)c2c(N)ncnc21 [Example 545]	4.00 to 6.00
C=C(C)C(=O)Nc1ccc(-c2c(-c3ccc(C(=O)N4CC5CC4(CO)C5)cc3)c3c(N)ncnc3n2C)cc1 [Example 547]	6.00 to 6.60
C=C(C)C(=O)Nc1ccc(-c2c(-c3ccc(C(=O)N4CC5CC4(C)C5)cc3)c3c(N)ncnc3n2C)cc1 [Example 548]	> 7.00
C=C(C)C(=O)Nc1ccc(-c2c(C3=CCC(Oc4ccn(C)n4)CC3)c3c(N)ncnc3n2C)cc1 (stereo not drawn) [Example 551]	6.00 to 6.60
